Measured values published in the NIST ThermoML archive (doi:10.1021/je301029j).
± gives the expanded uncertainty stated by the source.

How the values were obtained:
[1] = Molar enthalpy of transition or fusion; settings: Crystal; DSC
[2] = Crystal; DTA

- Molar enthalpy of transition or fusion [1]: 8.18 ± 0.177 kcal/mol
- Normal melting temperature [2]: 114.61 ± 0.63 °C
Compound: O=P(CCCO)(CCCO)CCCO [tris(3-hydroxypropyl)phosphine oxide]
